Measured values as given in BigSolDB 2.1.

c1cc(-n2c3ccccc3c3ccccc32)cc(-n2c3ccccc3c3ccccc32)c1
solubility (mole fraction)
Details | 273.15 K | 283.15 K | 293.15 K | 303.15 K | 313.15 K | 323.15 K
in DMSO | – | – | 0.00436 | 0.00443 | 0.00472 | 0.00505
in NMP | – | 0.062 | 0.0702 | 0.0761 | 0.0801 | –
in THF | – | 0.0507 | 0.0528 | 0.0598 | 0.0792 | –
in acetonitrile | – | 0.000243 | 0.000311 | 0.000363 | 0.000483 | –
in dichloromethane | 0.0949 | 0.107 | 0.112 | 0.139 | – | –
in ethanol | – | 0.000448 | 0.000561 | 0.000802 | 0.00109 | –
in ethyl acetate | – | 0.00426 | 0.00599 | 0.00827 | 0.00879 | –
in isopropanol | – | 4.55e-05 | 5.9e-05 | 6.95e-05 | 0.00011 | –
in methanol | – | 4.36e-05 | 6.14e-05 | 9.66e-05 | 0.000108 | –
in n-butanol | – | 0.000122 | 0.00017 | 0.000217 | 0.000318 | –
in n-hexane | – | 0.000183 | 0.000259 | 0.000342 | 0.000381 | –
in toluene | – | 0.0263 | 0.0316 | 0.0336 | 0.0445 | –
